Measurements from patent publication US5580871A, “4-Heteroaryl- 1,4-dihydropyridine compounds with calcium agonist and alpha1 -antagonist activity” (The Dupont Merck Pharmaceutical Company, priority 1995, dated 1996).

Columns and labels:
[1] = tested on: influx of calcium ions into cells; settings: background, cited from earlier work
guinea pig left atria = assay: Positive inotropic effect in guinea pig left atria; settings: Cavia porcellus; for EC50: concentration that increases developed tension (DT) by 50% above the control DT, left atria paced at 2 Hz, 37° C.; for Emax: ratio of the maximum effect of the test compound to that of Bay K8644, read-out: Intrinsic Activity
Procedure: Guinea pigs are killed by cervical dislocation. The left atria are removed and mounted at 1 gm resting tension in tissue baths containing oxygenated Krebs bicarbonate solution which is kept at 37° C. The left atria are electrically paced at 2 Hz with square wave pulses of 1 msec duration. The voltage is set at 1.5×threshold level.
After a one hour equilibration period, control values for developed tension (DT, gm) are recorded. Test compounds are then added to the baths, in a cumulative manner to a maximum concentration of 10^-4, to obtain a concentration-response curve. Treatment values of DT are obtained after the drug effect has reached a plateau and the exposure time for each concentration is 5-8 minutes. Percent change of the treatment value from the control value is calculated at each concentration of the test compound.

Ca^2+ channel = target: T1, Ca^2+ channel (Rattus norvegicus, UniProt P22002); assay: [3H]-Nitrendipine binding assay (affinity for calcium channels); settings: rat cardiac microsomes; 0.5 nM [3H]-nitrendipine, 60 min, 25° C.
T1 construct: rat cardiac microsomes (source of Ca^2+ channels); from tissue; host or cells: rat cardiac microsomes
T1 sequence (P22002 whole entry, other chains not shown): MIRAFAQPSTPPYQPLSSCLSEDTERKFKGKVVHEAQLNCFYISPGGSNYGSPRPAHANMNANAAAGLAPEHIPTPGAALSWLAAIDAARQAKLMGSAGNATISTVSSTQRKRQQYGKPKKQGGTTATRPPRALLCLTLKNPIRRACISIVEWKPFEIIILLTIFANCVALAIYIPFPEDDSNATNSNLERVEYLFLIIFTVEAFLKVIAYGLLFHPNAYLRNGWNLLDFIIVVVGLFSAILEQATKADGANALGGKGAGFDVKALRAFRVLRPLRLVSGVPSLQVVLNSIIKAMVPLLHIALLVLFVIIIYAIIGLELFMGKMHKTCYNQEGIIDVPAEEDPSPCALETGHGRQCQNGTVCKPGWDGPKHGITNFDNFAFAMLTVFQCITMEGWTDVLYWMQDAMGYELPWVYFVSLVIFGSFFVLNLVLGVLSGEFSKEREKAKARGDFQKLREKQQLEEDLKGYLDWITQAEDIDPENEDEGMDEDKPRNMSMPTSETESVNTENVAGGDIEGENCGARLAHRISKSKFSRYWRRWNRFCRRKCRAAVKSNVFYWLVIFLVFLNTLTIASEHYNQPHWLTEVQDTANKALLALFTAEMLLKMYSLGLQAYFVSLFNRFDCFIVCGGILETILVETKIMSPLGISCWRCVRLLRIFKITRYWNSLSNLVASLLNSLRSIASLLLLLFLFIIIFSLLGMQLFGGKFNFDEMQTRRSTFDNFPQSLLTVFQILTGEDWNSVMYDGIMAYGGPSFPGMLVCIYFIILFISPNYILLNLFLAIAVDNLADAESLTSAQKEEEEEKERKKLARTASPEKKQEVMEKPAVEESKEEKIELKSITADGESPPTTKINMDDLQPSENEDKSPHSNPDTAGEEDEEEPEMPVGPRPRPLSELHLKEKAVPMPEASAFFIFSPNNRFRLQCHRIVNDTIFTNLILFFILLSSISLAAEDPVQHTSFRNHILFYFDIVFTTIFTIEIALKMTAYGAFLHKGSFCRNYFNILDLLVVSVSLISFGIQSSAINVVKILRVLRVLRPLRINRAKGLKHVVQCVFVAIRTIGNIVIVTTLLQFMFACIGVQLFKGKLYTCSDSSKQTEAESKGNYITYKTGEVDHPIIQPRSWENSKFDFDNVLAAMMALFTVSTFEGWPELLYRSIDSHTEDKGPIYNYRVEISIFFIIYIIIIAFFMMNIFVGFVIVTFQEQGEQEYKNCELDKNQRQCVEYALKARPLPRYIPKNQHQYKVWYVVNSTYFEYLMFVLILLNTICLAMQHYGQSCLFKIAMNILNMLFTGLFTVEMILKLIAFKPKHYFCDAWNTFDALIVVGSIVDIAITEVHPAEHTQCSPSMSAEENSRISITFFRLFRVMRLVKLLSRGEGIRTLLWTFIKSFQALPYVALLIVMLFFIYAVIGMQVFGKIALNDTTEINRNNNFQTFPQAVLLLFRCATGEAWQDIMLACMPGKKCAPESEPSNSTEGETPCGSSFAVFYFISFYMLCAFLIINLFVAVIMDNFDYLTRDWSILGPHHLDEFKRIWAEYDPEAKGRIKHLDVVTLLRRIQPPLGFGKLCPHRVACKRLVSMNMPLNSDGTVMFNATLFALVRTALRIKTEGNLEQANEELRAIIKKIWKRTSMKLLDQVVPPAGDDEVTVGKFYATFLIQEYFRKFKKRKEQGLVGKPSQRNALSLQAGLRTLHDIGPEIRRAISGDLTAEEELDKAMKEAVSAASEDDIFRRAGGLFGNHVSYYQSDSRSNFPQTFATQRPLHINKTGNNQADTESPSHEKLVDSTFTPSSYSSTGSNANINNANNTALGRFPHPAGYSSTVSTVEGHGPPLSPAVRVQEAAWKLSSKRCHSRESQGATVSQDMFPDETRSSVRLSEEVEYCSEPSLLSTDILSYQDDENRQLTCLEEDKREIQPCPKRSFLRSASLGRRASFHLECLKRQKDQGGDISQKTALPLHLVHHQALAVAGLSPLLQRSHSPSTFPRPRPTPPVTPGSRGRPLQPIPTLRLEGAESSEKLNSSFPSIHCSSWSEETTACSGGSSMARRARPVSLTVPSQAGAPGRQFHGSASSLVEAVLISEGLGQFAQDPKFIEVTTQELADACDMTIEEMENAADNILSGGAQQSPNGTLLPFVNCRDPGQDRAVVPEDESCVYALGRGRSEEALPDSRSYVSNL
T1 sequence (P54290 25-944 partner limits assumed, other chains not shown): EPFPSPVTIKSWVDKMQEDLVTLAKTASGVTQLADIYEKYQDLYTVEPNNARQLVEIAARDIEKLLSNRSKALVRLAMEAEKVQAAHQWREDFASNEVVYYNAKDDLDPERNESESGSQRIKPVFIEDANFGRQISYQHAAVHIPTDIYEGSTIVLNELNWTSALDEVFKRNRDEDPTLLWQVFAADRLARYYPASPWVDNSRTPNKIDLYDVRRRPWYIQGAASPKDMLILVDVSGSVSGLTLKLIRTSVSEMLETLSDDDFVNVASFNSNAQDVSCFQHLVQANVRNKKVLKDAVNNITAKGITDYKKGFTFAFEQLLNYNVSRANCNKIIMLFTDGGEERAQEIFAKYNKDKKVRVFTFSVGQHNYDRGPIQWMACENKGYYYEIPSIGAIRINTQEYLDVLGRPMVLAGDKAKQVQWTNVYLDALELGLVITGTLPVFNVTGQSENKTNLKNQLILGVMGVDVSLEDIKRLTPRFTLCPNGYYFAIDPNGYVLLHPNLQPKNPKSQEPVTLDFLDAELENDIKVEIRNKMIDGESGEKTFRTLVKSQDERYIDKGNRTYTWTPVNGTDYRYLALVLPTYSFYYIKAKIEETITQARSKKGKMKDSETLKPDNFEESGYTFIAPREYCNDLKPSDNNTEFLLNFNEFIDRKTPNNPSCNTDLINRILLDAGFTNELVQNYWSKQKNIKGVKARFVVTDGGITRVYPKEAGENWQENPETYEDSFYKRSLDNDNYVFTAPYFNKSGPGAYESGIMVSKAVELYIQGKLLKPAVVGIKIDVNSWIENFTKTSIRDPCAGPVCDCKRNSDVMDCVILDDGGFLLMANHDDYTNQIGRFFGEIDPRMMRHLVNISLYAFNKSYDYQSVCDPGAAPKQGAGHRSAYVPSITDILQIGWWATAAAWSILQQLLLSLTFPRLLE
T1 sequence (P54290 945-1091 partner limits assumed, other chains not shown): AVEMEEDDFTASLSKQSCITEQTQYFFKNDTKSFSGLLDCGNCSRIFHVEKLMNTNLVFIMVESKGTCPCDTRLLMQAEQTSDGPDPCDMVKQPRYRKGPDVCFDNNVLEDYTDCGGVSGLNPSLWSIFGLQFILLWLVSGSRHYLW
Procedure: [^3 H]-Nitrendipine binding assay was carried out according to the method described by G. T. Bolger, et al., Biochem. Biophys. Res. Comm., 104, 1604-1609, (1982). The reaction mixture contained rat cardiac microsomes (source of Ca^2+ channels), 0.5 nM [^3 H]-nitrendipine with or without potential displacer in Tris buffer. The mixture was incubated for 60 minutes at 25° C. and subsequently terminated by rapid filtration through a glass fiber-filter. Membrane-bound [^3 H]-nitrendipine trapped in the filter was quantitated by scintillation counting. The inhibitory concentration (IC50) of potential displacer which gives 50% displacement of the total specifically bound [^3 H]-nitrendipine is presented as a measure of the affinity of such compound for the Ca^2+ channel.

alpha1-adrenoceptor = assay: [3H]-Prazosin binding assay (affinity for alpha1-adrenoceptors); settings: partially purified rat brain membranes; 0.2 nM [3H]-prazosin, 60 min, 25° C.
Procedure: The [^3 H]-prazosin binding assay was carried out according to the method described by Timmermans, P. B. M. W. M., Schoop, A. M. C., and Van Zwieten, P. A., Biochem. Pharmacol., 31, 899-905, (1982). The reaction mixture contained partially purified rat brain membranes (source of alpha1 -adrenoceptors), 0.2 nM [^3 H]-prazosin with or without potential displacer in Tris buffer. The mixture was incubated for 60 minutes at 25° C. and subsequently terminated by rapid filtration through glass fiber-filter. Receptor-bound [^3 H]-prazosin trapped in the filter was quantitated by scintillation counting. The inhibitory concentration (IC50) of potential displacer which gives 50% displacement of the total specifically bound [^3 H]-prazosin is presented as a measure of the affinity of such compound for the alpha1 -adrenoceptor.

EC50 (guinea pig left atria) [µM] | IC50 (Ca^2+ channel) [µM] | IC50 (alpha1-adrenoceptor) [µM] | Structure (SMILES) | calcium influx, inotropic and vascular effects ([1]; literature) | potency as a calcium agonist relative to CGP 28392 ([1]; literature) | coronary vasoconstriction ([1]; not useful as a cardiotonic) | Emax (guinea pig left atria) [%]
0.15 | – | – | COC(=O)C1=C(C)NC(C)=C([N+](=O)[O-])C1c1ccccc1C(F)(F)F (stereo not shown) [Bay K8644] | promote an influx of calcium ions, into cells thereby producing positive inotropic and vasoconstrictor effects | more than ten times as potent as CGP 28392 as a calcium agonist | coronary vasoconstricting properties | 100
62 | 2 | 0.035 | COc1ccccc1N1CCN(CCCCOC(=O)C2=C(C)NC(C)=C([N+](=O)[O-])C2c2ccco2)CC1 (stereo not shown) [Example 69] | – | – | – | 60
5 | 2 | 0.84 | CC1=C(C(=O)OCCCCN2CCN(c3ncccn3)CC2)C(c2ccco2)C([N+](=O)[O-])=C(C)N1 (stereo not shown) [Example 70, 4-(2-Furanyl)-1,4-dihydro-2,6-dimethyl-5-nitro-3-pyridinecarboxylic acid, {4-[4-(2-pyrimidinyl)-1-piperazinyl]butyl} ester] | – | – | – | 132
– | 1.7 | 0.078 | COc1ccccc1N1CCN(CCCCOC(=O)C2=C(C)NC(C)=C([N+](=O)[O-])C2c2ccsc2)CC1 (stereo not shown) [Example 71] | – | – | – | 40
12 | 1.6 | 1 | CC1=C(C(=O)OCCCCN2CCN(c3ncccn3)CC2)C(c2ccsc2)C([N+](=O)[O-])=C(C)N1 (stereo not shown) [Example 72] | – | – | – | 70
0.98 | 2.4 | 4.9 | CC1=C(C(=O)OCCN2CCN(c3ncccn3)CC2)C(c2cccs2)C([N+](=O)[O-])=C(C)N1 (stereo not shown) [Example 73] | – | – | – | 84
0.4 | 0.085 | 0.47 | COc1ccccc1N1CCN(CCOC(=O)C2=C(C)NC(C)=C([N+](=O)[O-])C2c2cccc3nonc23)CC1 (stereo not shown) [Example 75] | – | – | – | 82
0.056 | 0.085 | 17 | CC1=C(C(=O)OCCN2CCN(c3ncccn3)CC2)C(c2cccc3nonc23)C([N+](=O)[O-])=C(C)N1 (stereo not shown) [Example 76] | – | – | – | 156
0.23 | 1.1 | 0.11 | COc1ccccc1N1CCN(CCOC(=O)C2=C(C)NC(C)=C([N+](=O)[O-])C2c2cccn2C)CC1 (stereo not shown) [Example 77, 1,4-Dihydro-2,6-dimethyl-4-(1-methyl-1H-pyrrol-2-yl)-5-nitro-3-pyridinecarboxylic acid, {2-[4-(2-methoxyphenyl)-1-piperazinyl]ethyl} ester] | – | – | – | 240
0.58 | 1.7 | 3.3 | CC1=C(C(=O)OCCN2CCN(c3ncccn3)CC2)C(c2cccn2C)C([N+](=O)[O-])=C(C)N1 (stereo not shown) [Example 78, 1,4-Dihydro-2,6-dimethyl-4-(1-methyl-1H-pyrrol-2-yl)-5-nitro-3-pyridinecarboxylic acid, {2-[4-(2-pyrimidinyl)-1-piperazinyl]ethyl} ester] | – | – | – | 231
